The structures appear in SMILES notation.

For one assay, the target named is T1, Trifunctional purine biosynthetic protein adenosine-3 (Mus musculus, UniProt Q64737).
T1 sequence (Q64737 whole entry): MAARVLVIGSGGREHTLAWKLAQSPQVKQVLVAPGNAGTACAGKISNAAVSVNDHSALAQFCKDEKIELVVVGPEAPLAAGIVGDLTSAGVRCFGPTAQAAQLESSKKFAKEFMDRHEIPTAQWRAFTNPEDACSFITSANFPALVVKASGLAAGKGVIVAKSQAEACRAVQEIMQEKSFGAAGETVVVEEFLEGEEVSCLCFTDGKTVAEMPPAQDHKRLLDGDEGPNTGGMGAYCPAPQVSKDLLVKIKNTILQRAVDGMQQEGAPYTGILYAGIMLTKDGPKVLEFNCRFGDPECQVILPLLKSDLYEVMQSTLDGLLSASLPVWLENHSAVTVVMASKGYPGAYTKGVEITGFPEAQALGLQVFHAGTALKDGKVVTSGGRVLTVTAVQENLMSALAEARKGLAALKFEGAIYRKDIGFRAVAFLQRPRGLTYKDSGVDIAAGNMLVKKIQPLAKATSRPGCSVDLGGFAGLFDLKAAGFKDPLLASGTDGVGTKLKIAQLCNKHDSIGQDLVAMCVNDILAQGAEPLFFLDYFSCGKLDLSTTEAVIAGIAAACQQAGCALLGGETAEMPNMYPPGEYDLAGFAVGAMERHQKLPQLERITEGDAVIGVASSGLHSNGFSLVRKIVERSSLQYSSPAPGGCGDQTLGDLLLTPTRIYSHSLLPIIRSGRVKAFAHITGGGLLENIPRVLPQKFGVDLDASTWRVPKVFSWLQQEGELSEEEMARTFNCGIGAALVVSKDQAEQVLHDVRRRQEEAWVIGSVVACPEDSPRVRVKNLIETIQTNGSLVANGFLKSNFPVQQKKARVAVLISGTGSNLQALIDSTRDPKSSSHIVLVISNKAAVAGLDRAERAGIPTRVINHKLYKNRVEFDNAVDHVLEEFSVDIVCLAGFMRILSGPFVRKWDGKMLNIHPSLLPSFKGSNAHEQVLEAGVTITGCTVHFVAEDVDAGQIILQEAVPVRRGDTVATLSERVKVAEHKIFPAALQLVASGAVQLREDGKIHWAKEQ
Nature of the assay: Inhibition of GAR transformylase isolated from murine lymphoma cell line L5178Y. In kind it is cell-free.
Consider `N#CCCCN(Cc1ccc2nc(N)nc(O)c2c1)c1ccc(C(=O)NC(CCC(=O)O)C(=O)O)cc1` (configuration not stated), for which the affinity corresponds to a Ki of 11 µM.

Regarding `Nc1nc(O)c2cc(CN(CC(=O)c3ccccc3)c3ccc(C(=O)NC(CCC(=O)O)C(=O)O)cc3)ccc2n1` (configuration not stated), the Ki was determined as 3 µM.

The molecule `Nc1nc2ccc(CN(CCC(=O)O)c3ccc(C(=O)NC(CCC(=O)O)C(=O)O)cc3)cc2c(=O)[nH]1` (configuration not stated) came in with an inhibition constant Ki of 32 µM.

`C#CCN(Cc1ccc2[nH]c(N)nc(=O)c2c1)c1ccc(C(=O)NC(CCC(=O)O)C(=O)O)cc1` (configuration not stated) yielded a Ki of 6 µM.

Turning to `CC(=O)N(Cc1ccc2nc(N)[nH]c(=O)c2c1)c1ccc(C(=O)NC(CCC(=O)O)C(=O)O)cc1` (configuration not stated), the affinity corresponds to a Ki of 1.3 µM.

In turn, `Nc1nc2ccc(CN(CC3CC3)c3ccc(C(=O)NC(CCC(=O)O)C(=O)O)cc3)cc2c(=O)[nH]1` (configuration not stated) registered a Ki of 8 µM.

Turning to `Nc1nc2ccc(CN(Cc3c[nH]c(=O)[nH]c3=O)c3ccc(C(=O)NC(CCC(=O)O)C(=O)O)cc3)cc2c(=O)[nH]1` (configuration not stated), the inhibition constant (Ki) amounted to 7 µM.

In turn, `Nc1nc(O)c2cc(CNc3ccc(C(=O)NC(CCC(=O)O)C(=O)O)cc3)ccc2n1` (configuration not stated) [DIDEAZAFOLATE] displayed a Ki of 2 µM.

In the case of `CC(C)N(Cc1ccc2nc(N)nc(O)c2c1)c1ccc(C(=O)NC(CCC(=O)O)C(=O)O)cc1` (configuration not stated), the Ki was 19 µM.

The molecule `Nc1nc2ccc(CN(Cc3cccc(F)c3)c3ccc(C(=O)NC(CCC(=O)O)C(=O)O)cc3)cc2c(=O)[nH]1` (configuration not stated) yielded a Ki of 18 µM.

For `Nc1nc2ccc(CN(CC(=O)O)c3ccc(C(=O)NC(CCC(=O)O)C(=O)O)cc3)cc2c(=O)[nH]1` (configuration not stated), the Ki was 5 µM.

The next assay has as its target T1, Trifunctional purine biosynthetic protein adenosine-3. Nature of the assay: Inhibition of GAR transformylase isolated from the murine lymphoma cell line L5178Y. In kind it is cell-free.
Take `CCN(Cc1ccc2nc(N)nc(O)c2c1)c1ccc(C(=O)NC(CCC(=O)O)C(=O)O)cc1` (configuration not stated): the Ki was found to be 16 µM.

The record behind these values is ChEMBL document CHEMBL1123931, “N10-substituted 5,8-dideazafolate inhibitors of glycinamide ribonucleotide transformylase” (J Med Chem, 1987).
